Holding throughout (format): in vivo
The subject of experiment [1] is Lindernia pyxidaria. The experiment is described as follows: Test Example 2: herbicidal effect test by application during growth period of paddy rice. To be noted: 120 g per 10 ares, applied seven days after sowing, flooded pots, 14 days after application, read-out: weed inhibition rate. The method, boiled down: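 Greenhouse pots of flooded paddy soil, seeded shallowly with 30 seeds per weed, are treated on day 7 by dropper with diluted emulsifiable concentrate equal to 120 g a.i./10 a. Duplicate pots are scored for inhibition rate 14 days post-application.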

The subject of experiment [2] is Amaranthus viridis. The experiment can be described thus: Test Example 4: herbicidal effect test by stem and leaf treatment in upland field. To be noted: 120 g per 10 ares, sprayed seven days after sowing, upland soil, 14 days after application, read-out: weed inhibition rate. The method, boiled down:
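Post-emergence spray, 7 days after sowing: diluted emulsifiable concentrate at 100 liters per 10 ares delivering 120 g active ingredient per 10 ares. Weeds grown from seed mixed into the top 1 cm of alluvial loam. Inhibition (%) by formula at 14 days; duplicates.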

Experiment [3] has as its system Chenopodium album. Described as above. To be noted: 120 g per 10 ares, sprayed seven days after sowing, upland soil, 14 days after application, read-out: weed inhibition rate.
Experiment [4] deals with Lindernia pyxidaria. The experiment can be described thus: Test Example 5: herbicidal effect test by soil application in paddy rice (low dose). As to conditions: 336 h, 7.5 g per 10 ares, applied immediately after sowing, flooded pots, 14 days after application, read-out: weed inhibition rate. The method, boiled down: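 7.5 g a.i./10 a applied by dropper into ~3 cm floodwater immediately post-sowing (seeds 0–1 cm, 30 per species; puddled fertilized paddy soil, glasshouse). Duplicates; day-14 inhibition %.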

Experiment [5] concerns Chenopodium album. The experiment is described as follows: Test Example 7: herbicidal effect test by soil application in upland field (low dose). To be noted: 7.5 g per 10 ares, sprayed one day after sowing, 14 days after application, read-out: weed inhibition rate. The method in brief: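 Duplicate pots of alluvial loam, seeds incorporated in the surface 1 cm. Soil surface sprayed 1 d after sowing (EC in water, 100 L/10 a; 7.5 g a.i./10 a). Endpoint: % inhibition, day 14.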

Experiment [6] relates to Amaranthus viridis. The description is as above. As to conditions: 7.5 g per 10 ares, sprayed one day after sowing, upland soil, 14 days after application, read-out: weed inhibition rate.
The subject of experiment [7] is Amaranthus viridis. The experiment can be described thus: Test Example 8: herbicidal effect test by stem and leaf treatment in upland field (low dose). To be noted: 7.5 g per 10 ares, sprayed seven days after sowing, upland soil, 14 days after application, read-out: weed inhibition rate. The method, boiled down:
(§1)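 Post-emergence spray, 7 d after sowing: EC diluted in water, 100 L/10 a, 7.5 g a.i./10 a. Read-out: inhibition rate (%) at 14 d; n=2 per concentration.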

The test system of experiment [8] is Chenopodium album. The description is as above. To be noted: 7.5 g per 10 ares, sprayed seven days after sowing, upland soil, 14 days after application, read-out: weed inhibition rate. The method, boiled down:
as §1

Experiment [9] has as its system Echinochloa crus-galli var. formosensis at the three-leaf stage. The experiment can be described thus: Comparative Example: herbicidal effect test by application during growth period of paddy rice (three-leaf stage, Table 7). To be noted: 504 h, active ingredient 7.5 g per 10 ares, emulsifiable concentrate applied by dropper to flooded pots, 21 days after chemical application, triplicate, read-out: Weed inhibition rate (%). Here is the method:
As an example, the herbicidal effect on Echinochloa crus-galli var. formosensis at the three-leaf stage was confirmed by the following method, and the results are specifically shown in Table 7 as a comparative example.
Wagner pots with an area of […] were filled with paddy soil, followed by addition of water and incorporation of chemical fertilizer (N:P:K = 16:16:16), after which puddling was performed. After that, 30 seeds of Echinochloa crus-galli var. formosensis were sown at a depth of 0 cm to 1 cm. Immediately after sowing, the pots were flooded and a water depth of approximately 3 cm was maintained. Subsequent management was conducted in a glass greenhouse. When Echinochloa crus-galli var. formosensis reached the three-leaf stage, an emulsifiable concentrate prepared according to Formulation Example 5 using the compound shown below was diluted with water, and a specified amount of the diluted solution was applied by dropper. The amount of the active ingredient to be applied was equivalent to 7.5 g per 10 ares. The test was conducted in triplicate for each chemical concentration group, and the weed inhibition rate (%) was determined 21 days after chemical application using the following formula (Math. 1).

Molecules are shown by their SMILES.

What is called inhibition is the percentage by which the read-out fell short of the control.

With `CC(C)[C@]12C[C@@H](OCc3ccccc3F)[C@](C)(CC1OCC1CC1)O2` (mixture of isomers) [1-921, (1S,2R,4R,SR)-5-(cyclopropylmethoxy)-2-[(2-fluorophenyl)methoxy]-1-methyl-4-isopropyl-7-oxabicyclo[2.2.1]heptane], the inhibition at 1200 g/ha in [1], in experiment [2] and in [3] was not below 80% each time. Besides, the inhibition at 75 g/ha in experiment [4], in experiment [5], in experiment [6], in [7] and in experiment [8] was not below 80% throughout.

As to `CC(C)[C@]12C=C[C@](C)(O1)C(OCc1ccccc1F)C2` (mixture of isomers) [3-5, (1R,4S,SR)-5-[(2-fluorophenyl)methoxy]-4-methyl-1-isopropyl-7-oxabicyclo[2.2.1]hept-2-ene], the inhibition at 1200 g/ha in experiment [1], in experiment [2] and in experiment [3] was not below 80% throughout. For the same molecule, the inhibition at 75 g/ha was not below 80% in [8] and 82% in experiment [9].

For the molecule `Cc1ccccc1CO[C@@H]1C[C@]2(C(C)C)O[C@@]1(C)C[C@@H]2F` [1-2, (1R,2S,4S,5R)-2-fluoro-1-isopropyl-4-methyl-5-((2-methylbenzyl)oxy)-7-oxabicyclo[2.2.1]heptane], the inhibition at 1200 g/ha in experiment [1], in [2] and in experiment [3] was not below 80% in each case. In addition, the inhibition at 75 g/ha in [7] is not below 80%; in [8] it was not below 80%; in experiment [9], 94%.

`CC(C)[C@]12C[C@@H](OCc3c(F)cccc3F)[C@](C)(C[C@@H]1F)O2` [1-7, (1S,2R,4R,5S)-2-((2,6-difluorobenzyl)oxy)-5-fluoro-4-isopropyl-1-methyl-7-oxabicyclo[2.2.1]heptane]: the inhibition at 1200 g/ha in [3] is not below 80%. Further, the inhibition at 75 g/ha in experiment [5] is not below 80%; in experiment [6], not below 80%; in experiment [9] it was 100%.

As for `C=CCO[C@@H]1C[C@]2(C)O[C@@]1(C(C)C)C[C@H]2OCc1ccccc1F` [1-930, (1S,2R,4R,5R)-2-[(2-fluorophenyl)methoxy]-1-methyl-4-isopropyl-5-prop-2-enoxy-7-oxabicyclo[2.2.1]heptane], the inhibition at 1200 g/ha in experiment [1], in [2] and in [3] was not below 80% throughout. Moreover, the inhibition at 75 g/ha in experiment [4], in experiment [5], in experiment [6], in [7] and in [8] was not below 80% in each case.

As to `C#CCO[C@@H]1C[C@]2(C)O[C@@]1(C(C)C)C[C@H]2OCc1ccccc1F` [1-931, (1S,2R,4R,5R)-2-[(2-fluorophenyl)methoxy]-1-methyl-4-isopropyl-5-prop-2-ynoxy-7-oxabicyclo[2.2.1]heptane], the inhibition at 1200 g/ha in [1], in experiment [2] and in [3] was not below 80% each time. The inhibition at 75 g/ha in [4], in [6] and in experiment [7] was not below 80% in each case.

Take `C=C1C[C@]2(C)O[C@@]1(C(C)C)C[C@H]2OCc1ccccc1C` [2-72, (1R,4S,5R)-1-isopropyl-4-methyl-5-((2-methylbenzyl)oxy)-2-methylene-7-oxabicyclo[2.2.1]heptane]: the inhibition at 1200 g/ha in experiment [1] and in [3] was not below 80% in each case. For the same molecule, the inhibition at 75 g/ha in [5], in experiment [6] and in [8] was not below 80% throughout.

With `C=C1C[C@]2(C)O[C@@]1(C(C)C)C[C@H]2OCc1ccccc1F` [2-88, (1R,4S,5R)-5-((2-fluorobenzyl)oxy)-1-isopropyl-4-methyl-2-methylene-7-oxabicyclo[2.2.1]heptane], the inhibition at 1200 g/ha in experiment [1] and in experiment [3] was not below 80% each time. Moreover, the inhibition at 75 g/ha in [5] is not below 80%; in experiment [6], not below 80%; in [8], not below 80%; in [9] it was 80%.

These data come from patent EP4707280A1, “1,4-CINEOLE DERIVATIVE AND INTERMEDIATE THEREOF, HERBICIDE CONTAINING SAID DERIVATIVE AS ACTIVE INGREDIENT, METHOD FOR USING HERBICIDE, AND METHOD FOR PREPARING AGROCHEMICAL COMPOSITION” (HOKKO CHEMICAL INDUSTRY CO., LTD., priority 2023, dated 2024).
